In patent US20060094755A1, “Novel quinoline-based metal chelators as antiviral agents” (Bioflexis, LLC, priority 2004, published 2006):

Tests used:
IN (integrase) = biological target: T1, IN (integrase) (Human immunodeficiency virus type 1 group M subtype B, UniProt P12497); settings: cited from earlier work
T1 construct: HIV-1 recombinant IN (HIV-1NL4-3 Integrase, NIH AIDS Reagent program Catalog No:2959); purchased NIH AIDS Reagent program 2959

HIV = settings: ex-vivo viral inhibition assay; cited from earlier work
HIV-1 MC99IIIBΔTat-Rev = experiment: viral inhibition assay (p24 ELISA, CEM-TART cells), FIG. 4; format: cell-based; settings: Human immunodeficiency virus 1
Source text: The novel compounds of the present invention can be further evaluated for their ability to inhibit viral replication in ex-vivo assays. Most common of these include determining the viral replication in either purified human CD4+ T cell blasts infected with HIV in the presence or absence of various concentrations of inhibitors or HIV infected MT4 cell line treated with different concentration of inhibitors. A standard laboratory method in screening for inhibitors against HIV in biological assays involves the use of recombinant HIV strain that can replicate only in the supporting complementing cell line. This model system allows the examination of HIV viral replication in a biologically contained manner and is suitable for inhibitor screening. The method is described briefly below. The recombinant HIV-1 strain (HIV-1 MC99IIIBΔTat-Rev; NIH Aids Reagent Program, catalog No: 1943) is genetically engineered to replicate only in supporting recombinant cell lines (CEM-TART Cells, NIH Aids Reagent Program catalog No 1944). The construction of the recombinant mutant virus, the supporting cell line and the biological assay are described in detail elsewhere. […] The extent of viral replication can be determined by measuring the soluble viral p24 protein present in the culture supernatant collected at 24, 48, 72 and 96-hr post infection using commercial ELISA kits.

Row | SMILES | inhibition of 3′ processing (IN (integrase)) | inhibition of strand transfer reaction (IN (integrase)) | EC50 (HIV) [µM] | IC50 (HIV-1 MC99IIIBΔTat-Rev) [µM]
1 | O=C(O)C(=O)CC(=O)c1cc(OCc2ccccc2)cc(OCc2ccccc2)c1 [Compound 6] | do not inhibit 3′ processing | inhibit strand transfer reaction | – | –
2 | O=C(O)C(=O)CC(=O)c1cccn1Cc1ccc(F)cc1 [Compound 8] | do not inhibit 3′ processing | inhibit strand transfer reaction | – | –
3 | O=C(/C=C(\O)c1nn[nH]n1)c1c[nH]c2ccc(Cl)cc12 [Compound 10] | inhibit both reactions | inhibit both reactions | 0.7 | –
4 | O=C(O)CN(CCN(CCN(CC(=O)O)CC(=O)O)Cc1ccc2cccc(O)c2n1)CC(=O)O [Compound 16] | – | – | – | 19.3
